Assay results from patent US20210162091A1, “WASH-DURABLE, FLUID ABSORBENT SUBSTRATE WITH ANTIMICROBIAL PROPERTIES AND/OR IMPROVED WASHABILITY, AND HYGIENE PRODUCT SUCH AS REUSABLE SANITARY NAPKIN” (Livinguard AG, priority 2015, published 2021).

Key:
[1] = tested on: fungi (Candida albicans and Aspergillus niger); assay: Antimicrobial performance against fungi (AATCC 100:2012, summary in words); type: cell-based; settings: single agent, 6% o.w.f. chemical
Method: (§1) All microbiological tests were performed with cultures of the bacteria Escherichia coli American Type Culture Collection (ATCC) 25922, Staphylococcus aureus ATCC 6538, Pseudomonas aeruginosa ATCC 15442, Salmonella enterica ATCC 10708, and of the fungi Candida albicans ATCC 10231, and Aspergillus niger ATCC 16404.

[2] = tested on: bacteria (Escherichia coli, Staphylococcus aureus, Pseudomonas aeruginosa, and Salmonella enterica); assay: Antimicrobial performance against bacteria (AATCC 100:2012, summary in words); type: cell-based; settings: single agent, 6% o.w.f. chemical
Method: as §1

Molecule	Efficiency for killing fungi ([1]; adhered to cotton)	Efficiency for killing fungi ([1]; adhered to polyester)	Efficiency for killing bacteria ([2]; adhered to cotton)	Efficiency for killing bacteria ([2]; adhered to polyester)
CCCC1COC(Cn2cncn2)(c2ccc(Cl)cc2Cl)O1 (stereo not drawn) [propiconazole, reference compound]	efficient for killing fungi	works well against fungi	not efficient for killing bacteria	about as efficient against bacteria as silver and quaternary ammonium organosilane
CCCCCCCCCCCCCCCCCC[N+](C)(C)CCC[Si](OC)(OC)OC [dimethyloctadecyl[3-(trimethoxysilyl)propyl] ammonium chloride]	–	not efficient for killing fungi	–	about equally efficient in killing bacteria
silver	perform poorly	not efficient for killing fungi	about equally efficient for killing bacteria	about equally efficient in killing bacteria
polyhexamethylene biguanide [PHMB]	perform poorly	–	about equally efficient for killing bacteria	–
